In US20220402961A1 (BONTAC BIO-ENGINEERING(SHENZHEN) CO.,LTD, priority 2021, published 2022):

Settings: screened with a sieve (1.00 mm, No. 18), poured into glass graduated measuring cylinder, apparent volume
Description: The tops were scraped flat. The apparent volumes were recorded. The bulk densities were calculated.

NC(=O)c1ccc[n+]([C@@H]2O[C@H](COP(=O)([O-])O)[C@@H](O)[C@H]2O)c1 [Form 1, nicotinamide mononucleotide anhydrous crystal (form 1)]
Bulk density: 0.15 g/mL
